Tests used:
mouse GPR39 = molecular target: T1, mouse GPR39 (Mus musculus, UniProt Q5U431, T447P); type: cell-based; details: FLIPR, Fluo-3AM (FIG. 14 through FIG. 18)
T1 construct: expressed in transfected cells; host or cells: CHO cells, vector pAKKO-111H
T1 sequence (Q5U431 1-456 T447P): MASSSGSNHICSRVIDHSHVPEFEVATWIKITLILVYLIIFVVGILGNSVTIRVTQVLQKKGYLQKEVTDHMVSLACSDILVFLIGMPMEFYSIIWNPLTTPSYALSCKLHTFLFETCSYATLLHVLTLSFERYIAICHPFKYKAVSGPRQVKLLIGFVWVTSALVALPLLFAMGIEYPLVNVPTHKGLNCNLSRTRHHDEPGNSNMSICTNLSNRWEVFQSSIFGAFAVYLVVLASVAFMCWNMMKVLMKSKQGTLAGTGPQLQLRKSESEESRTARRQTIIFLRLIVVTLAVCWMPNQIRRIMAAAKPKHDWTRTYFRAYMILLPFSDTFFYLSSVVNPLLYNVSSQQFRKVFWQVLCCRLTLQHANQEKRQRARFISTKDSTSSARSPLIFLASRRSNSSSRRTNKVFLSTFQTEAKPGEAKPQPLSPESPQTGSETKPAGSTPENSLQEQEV
Description: (§1) Using the CHO cell line where rat GPR39 was stably expressed, the agonist activity of metal ions was detected using FLIPR in terms of the intracellular calcium-increasing reaction as an indicator. The CHO cell line used, wherein rat GPR39 was stably expressed, was cultured in HAM's αMEM (Invitrogen Corp.) containing 10% calf fetal serum (Invitrogen Corp.). On the day before the assay was conducted, the human GPR39-expressing CHO cell line was cultured in a culture flask to reach a confluent state. After washing with PBS, the cells were scraped off using trypsin and centrifuged for recovery. The cells were then suspended in medium and the suspension was adjusted to 3×10^5 cells/ml. Then, the suspension was dispensed onto a black walled 96-well plate (Costar) in 100 μl each per well, followed by incubation overnight in a CO2 incubator.
(§2) On the day when the assay was conducted, various test samples were added to the cells and the changes of intracellular calcium levels in this case were determined by FLIPR (Molecular Device). In order to determine the changes in intracellular calcium levels on FLIPR, the cells were pre-treated by the following procedures. First, for the purpose of adding a fluorescent dye Fluo-3AM (DOJIN) to the cells or washing the cells immediately before the FLIPR assay, an assay buffer was prepared. A solution was prepared by adding 20 ml of 1M HEPES (pH 7.4) (DOJIN) to 1000 ml of HBSS (Invitrogen Corp.) (hereinafter HBSS/HEPES solution), to which solution was added 10 ml of a solution mixture obtained by dissolving 710 mg of Probenecid (Sigma) in 5 ml of 1N NaOH and further adding 5 ml of HBSS/HEPES solution thereto. The resulting solution was used as the assay buffer. Next, 50 μg of Fluo-3AM was dissolved in 21 μl of DMSO (DOJIN) and an equal volume of 20% Pluronic acid (Molecular Probes) was added to and mixed with the solution. The mixture was then added to 10.6 ml of the assay buffer supplemented with 105 μl of fetal calf serum to prepare a fluorescent dye solution. The medium for the CHO cells where human GPR39 was stably expressed was removed. Immediately thereafter, the fluorescent dye solution was dispensed in 100 μl each/well and the cells were incubated in a CO2 incubator for an hour so that the fluorescent dye was taken up into the cells. The cells after the incubation was washed with the assay buffer described above and set on FLIPR. A test sample to be added to the CHO cells where rat GPR39 was stably expressed was prepared using the assay buffer and set on FLIPR at the same time. Following the pre-treatment above, the changes in intracellular calcium levels after the addition of each test sample were determined by FLIPR.
Using the CHO cell line where mouse GPR39 was stably expressed, the agonist activity of metal ions was detected on FLIPR in accordance with the procedures described in EXAMPLE 5, in terms of the intracellular calcium-increasing reaction as an indicator.

[1] = test system: CHO cells where the receptor was not expressed or GPCR other than GPR39 was expressed; type: cell-based; details: FLIPR; control cells
rat GPR39 = type: cell-based; details: FLIPR, Fluo-3AM (FIG. 9 through FIG. 13)
Description: as §1, §2

human GPR39 = molecular target: T2, human GPR39 (Homo sapiens, UniProt O43194); type: cell-based; set-up: expressed in transfected cells; host or cells: CHO cells, vector pAKKO-111H; details: FLIPR, Fluo-3AM; metal salt added, 10-300 μM (FIGS. 1-4)
T2 sequence (O43194 1-453): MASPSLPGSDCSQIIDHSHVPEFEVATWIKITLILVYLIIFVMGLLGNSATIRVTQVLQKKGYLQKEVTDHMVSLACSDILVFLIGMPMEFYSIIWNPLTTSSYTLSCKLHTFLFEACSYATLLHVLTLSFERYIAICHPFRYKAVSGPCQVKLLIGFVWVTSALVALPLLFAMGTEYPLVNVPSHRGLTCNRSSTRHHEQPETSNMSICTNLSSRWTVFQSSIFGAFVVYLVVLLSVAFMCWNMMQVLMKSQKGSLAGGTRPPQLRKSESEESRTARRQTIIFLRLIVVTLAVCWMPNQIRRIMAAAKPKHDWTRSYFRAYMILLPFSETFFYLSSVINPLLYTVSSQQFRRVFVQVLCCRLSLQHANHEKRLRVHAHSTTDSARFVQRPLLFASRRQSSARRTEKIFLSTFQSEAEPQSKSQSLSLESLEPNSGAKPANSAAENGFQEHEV
Description: The human GPR39-GFP expression vector-transfected CHO cell line produced in EXAMPLE 1 (CHO/hGPR39-GFP) was diluted in 3×10^4 cells/100 μl. The dilution was dispensed onto a Black walled 96-well plate (Costar) in 100 μl each per well, followed by incubation overnight in a CO2 incubator. Changes in intracellular calcium levels were determined by the following method using FLIPR (Molecular Device). In 21 μl of DMSO (DOJIN), 50 μg of Fluo-3AM (DOJIN) was dissolved and an equal volume of 20% Pluronic acid (Molecular Probes) was added to the solution. After mixing them, the resulting mixture was added to 10.6 ml of assay buffer [prepared by adding 20 ml of 1M HEPES (pH 7.4) (DOJIN) to HBSS (Invitrogen Corp.) and further adding to the solution 10 ml of a solution mixture, which mixture was prepared by dissolving 710 mg of Probenecid (Sigma) in 5 ml of 1N NaOH and then adding thereto 5 ml of the HBSS/HEPES solution above] supplemented with 105 μl of fetal calf serum to prepare a fluorescent dye solution. The medium in the cell plate was removed. Immediately thereafter, the fluorescent dye solution was dispensed in 100 μl each/well and the cells were incubated in a CO2 incubator for an hour so that the fluorescent dye was taken up into the cells. The cells after the incubation were washed with the assay buffer described above and set on FLIPR. Compounds of metal elements to be added to the cells were diluted to the respective concentration with the assay buffer. The dilutions were dispensed onto plates for ligands and set on FLIPR. Following the pre-treatment above, changes in intracellular calcium levels after addition of metal elements were determined by FLIPR to study agonist activities.

[2] = test system: bladder (micturition) of conscious rats; test: Cystometry in conscious rats with intravesical infusion; type: in vivo, rat; details: female SD rats, protamine sulfate 10 mg/mL in PBS infused into the bladder for an hour
Description: Female SD rats of 9-10 weeks old were anaesthetized by intramuscular injection with 0.1 ml/100 g of a solution obtained by mixing ketamine (50 mg/mL) and xylazine (20 mg/mL) in 5:1. The bladder was then exposed via a midline incision and a hole was made with a 20-G needle to insert a polyethylene tube (PE-50), which tube was sutured to the bladder with cotton thread. The polyethylene tube cannulated into the bladder was cut at a length of about 1 cm, which was connected to a silicon tube (No. 00) and exposed to the dorsum through the skin. The animals were housed in individual cages until they were used for the experiments.
One day after the surgery, the animal was anesthetized with halothane and placed in Ballman cages under restricted conditions. After a three-way cock was connected to the tube cannulated into the bladder, a saline infusion tube was connected to a cystometry tube (resistance to infusion). An electronic scale was placed under the Ballman cages and the micturition volume was measured at the same time. When the anesthetic completely worn off, the infusion of saline into the bladder commenced and the bladder pressure and micturition volume were recorded on a personal computer via an A-D converter (MP-100, BIOPAC Systems) and analyzed using a dedicated software (AcqKnowledge, BIOPAC Systems).
Saline was infused into the bladder at the rate of 6 ml/hr and the infusion was continued for 1 or 2 hours until stable micturition was recorded. In order to enhance the permeability of a drug into the bladder, protamine sulfate (10 mg/mL in PBS) was infused into the bladder for an hour (Chuang Y, et. al., 2003, Urology, 63, 664-670). […] Then, saline was reinfused into the bladder and micturition was recorded at least 2 hours until protamine was completely washed off. […] Mean micturition intervals during from about 30 minutes to about 60 minutes after starting the infusion of CuCl2 were calculated to find a ratio to mean micturition intervals for about 30 minutes before the infusion of CuCl2 (% of the pre-value).

Compound	intracellular calcium levels of CHO/mGPR39 (mouse GPR39)	intracellular calcium response in CHO cells without the receptor or with GPCR other than GPR39 [1]	intracellular calcium levels of CHO/rGPR39 (rat GPR39)	intracellular calcium levels of CHO/hGPR39-GFP (human GPR39)	micturition intervals compared to those prior to the infusion [2]
[Cl][Cd][Cl] [cadmium chloride]	dose-dependently increased	no such response was observed	dose-dependently increased	dose-dependently increased	
[Cl][Co][Cl] [cobalt chloride]	dose-dependently increased		dose-dependently increased		
[Cl-].[Cl-].[Zn+2] [zinc chloride]	dose-dependently increased	no such response was observed	dose-dependently increased	dose-dependently increased	
protamine sulfate					Any substantial change in micturition intervals was noted

From patent US7972800B2, “Screening method for binding property or signal transduction alterations” (Takeda Pharmaceutical Company Limited, priority 2003, dated 2011)
